From the OligoGym collection come the findings set out here.

HELM strings list units from the 5' end as sugar, base in round brackets, then linkage (d deoxyribose, r ribose, m 2'-O-methyl, p phosphodiester). Strings are as the collection lists them, not checked against the first reports. ss, as = sense and antisense strand; [lna] = locked nucleic acid (LNA); [hna] = hexitol nucleic acid; [s4r] = 4'-thioribose; [fl2r] = 2'-fluoro
Note: test system not given here.

The conditions of the data set: siRNA.
For the substance “RNA1{[fl2r](G)p.m(A)p.[fl2r](C)p.m(G)p.[fl2r](U)p.m(A)p.[fl2r](A)p.m(A)p.[fl2r](C)p.m(G)p.[fl2r](G)p.m(C)p.[fl2r](C)p.m(A)p.[fl2r](C)p.m(A)p.[fl2r](A)p.m(G)p.[fl2r](U)p.m(U)p.[fl2r](C)}|RNA2{r(A)p.r(C)p.r(U)p.r(U)p.r(G)p.r(U)p.r(G)p.r(G)p.r(C)p.r(C)p.r(G)p.r(U)p.r(U)p.r(U)p.r(A)p.r(C)p.r(G)p.r(U)p.[lna](C)p.[lna](G)p.r(C)}$$$RNA1{StrandType:ss}|RNA2{StrandType:as}$”, the target mRNA knockdown was found to be 84.4%.

For the substance “RNA1{r(G)p.r(G)p.r(G)p.r(A)p.r(A)p.r(A)p.[fl2r](C)p.[fl2r](U)p.r(G)p.r(A)p.r(A)p.r(A)p.r(G)p.r(G)p.[fl2r](C)p.[fl2r](U)p.r(A)p.[fl2r](U)p.r(G)p.r(T)p.r(T)}|RNA2{r(C)p.r(A)p.r(U)p.r(A)p.r(G)p.r(C)p.r(C)p.r(U)p.r(U)p.r(U)p.r(C)p.r(A)p.r(G)p.r(U)p.r(U)p.r(U)p.r(C)p.r(C)p.r(C)p.r(T)p.r(T)}$$$RNA1{StrandType:ss}|RNA2{StrandType:as}$”, the target mRNA knockdown worked out at 51%.

“RNA1{r(A)p.r(G)p.r(A)p.r(U)p.r(G)p.r(U)p.r(U)p.r(C)p.r(U)p.r(C)p.r(G)p.r(U)p.r(A)p.r(A)p.r(G)p.r(G)p.r(A)p.r(C)p.r(G)p.r(T)p.r(T)}|RNA2{r(C)p.r(G)p.r(U)p.r(C)p.r(C)p.r(U)p.m(U)p.r(A)p.r(C)p.r(G)p.r(A)p.r(G)p.r(A)p.r(A)p.r(C)p.r(A)p.r(U)p.r(C)p.r(U)p.r(T)p.r(T)}$$$RNA1{StrandType:ss}|RNA2{StrandType:as}$” showed a target mRNA knockdown of 69%.

Consider “RNA1{r(C)p.r(U)p.r(U)p.r(A)p.r(C)p.r(G)p.r(C)p.r(U)p.r(G)p.r(A)p.r(G)p.r(U)p.r(A)p.r(C)p.r(U)p.r(U)p.r(C)p.r(G)p.r(A)p.r(T)p.r(T)}|RNA2{r(U)p.r(C)p.r(G)p.r(A)p.r(A)p.r(G)p.r(U)p.r(A)p.r(C)p.r(U)p.[lna](C)p.r(A)p.r(G)p.r(C)p.r(G)p.r(U)p.r(A)p.r(A)p.r(G)p.r(T)p.r(T)}$$$RNA1{StrandType:ss}|RNA2{StrandType:as}$”, for which the target mRNA knockdown stood at 50%.

Take “RNA1{r(G)p.r(A)p.r(C)p.r(G)p.[hna](U)p.r(A)p.r(A)p.[hna](A)p.r(C)p.r(G)p.[hna](G)p.r(C)p.r(C)p.[hna](A)p.r(C)p.r(A)p.r(A)p.r(G)p.r(U)p.[hna](U)p.d(T)}|RNA2{[fl2r](A)p.m(C)p.[fl2r](U)p.m(U)p.[fl2r](G)p.m(U)p.[fl2r](G)p.m(G)p.[fl2r](C)p.m(C)p.[fl2r](G)p.m(U)p.[fl2r](U)p.m(U)p.[fl2r](A)p.m(C)p.[fl2r](G)p.m(U)p.[fl2r](C)p.m(G)p.[fl2r](C)}$$$RNA1{StrandType:ss}|RNA2{StrandType:as}$”: the target mRNA knockdown was 13.2%.

As for “RNA1{r(A)p.r(U)p.r(C)p.r(A)p.r(C)p.r(A)p.r(A)p.r(A)p.r(C)p.r(C)p.r(C)p.r(C)p.m(U)p.r(A)p.r(G)p.r(A)p.r(G)p.r(G)p.r(G)p.r(T)p.r(T)}|RNA2{r(C)p.r(C)p.r(C)p.r(U)p.r(C)p.m(U)p.r(A)p.r(G)p.r(G)p.r(G)p.r(G)p.r(U)p.r(U)p.r(U)p.r(G)p.r(U)p.r(G)p.r(A)p.r(U)p.r(T)p.r(T)}$$$RNA1{StrandType:ss}|RNA2{StrandType:as}$”, the target mRNA knockdown was 29%.

Substance “RNA1{r(G)p.r(G)p.r(C)p.r(C)p.r(U)p.r(U)p.r(U)p.r(C)p.r(U)p.r(C)p.r(U)p.r(C)p.m(U)p.r(A)p.r(G)p.r(A)p.m(U)p.r(A)p.r(U)p.r(T)p.r(T)}|RNA2{r(A)p.m(U)p.r(A)p.r(U)p.r(C)p.m(U)p.r(A)p.r(G)p.r(A)p.r(G)p.r(A)p.r(G)p.r(A)p.r(A)p.r(A)p.r(G)p.r(G)p.r(C)p.r(C)p.r(T)p.r(T)}$$$RNA1{StrandType:ss}|RNA2{StrandType:as}$” had a target mRNA knockdown of 89%.

As for “RNA1{r(C)p.r(C)p.r(A)p.[fl2r](G)p.r(C)p.[fl2r](G)p.r(A)p.[fl2r](G)p.r(C)p.r(C)p.r(C)p.r(A)p.r(A)p.r(A)p.r(A)p.[fl2r](G)p.r(A)p.r(A)p.r(A)p.r(T)p.r(T)}|RNA2{[fl2r](U)p.r(U)p.[fl2r](U)p.r(C)p.[fl2r](U)p.r(U)p.[fl2r](U)p.r(U)p.[fl2r](G)p.r(G)p.[fl2r](G)p.r(C)p.[fl2r](U)p.r(C)p.[fl2r](G)p.r(C)p.[fl2r](U)p.r(G)p.[fl2r](G)p.r(T)p.r(T)}$$$RNA1{StrandType:ss}|RNA2{StrandType:as}$”, the target mRNA knockdown is 35%.

Regarding “RNA1{m(G)p.r(A)p.m(A)p.r(G)p.m(A)p.r(G)p.m(C)p.r(C)p.m(U)p.r(A)p.m(C)p.r(A)p.m(C)p.r(A)p.m(A)p.r(C)p.m(C)p.r(C)p.m(U)p.r(T)p.r(T)}|RNA2{r(A)p.r(G)p.r(G)p.r(G)p.r(U)p.r(U)p.r(G)p.r(U)p.m(G)p.r(U)p.m(A)p.r(G)p.m(G)p.r(C)p.m(U)p.r(C)p.m(U)p.r(U)p.m(C)p.r(T)p.r(T)}$$$RNA1{StrandType:ss}|RNA2{StrandType:as}$”, the target mRNA knockdown turned out to be 50%.

The substance “RNA1{[s4r](C)p.[s4r](G)p.[s4r](U)p.[s4r](A)p.r(C)p.r(G)p.r(C)p.r(G)p.r(G)p.r(A)p.r(A)p.r(U)p.r(A)p.r(C)p.r(U)p.[s4r](U)p.[s4r](C)p.[s4r](G)p.[s4r](A)p.r(T)p.r(T)}|RNA2{r(U)p.r(C)p.r(G)p.r(A)p.r(A)p.r(G)p.r(U)p.r(A)p.r(U)p.r(U)p.r(C)p.r(C)p.r(G)p.r(C)p.r(G)p.r(U)p.r(A)p.r(C)p.r(G)p.r(T)p.r(T)}$$$RNA1{StrandType:ss}|RNA2{StrandType:as}$” registered a target mRNA knockdown of 94.7%.

In the case of “RNA1{m(G)p.m(G)p.m(A)p.r(C)p.r(U)p.m(A)p.r(C)p.r(U)p.m(A)p.m(A)p.r(C)p.r(C)p.r(U)p.r(C)p.r(C)p.m(A)p.m(G)p.r(U)p.r(U)p.r(T)p.r(T)}|RNA2{r(A)p.r(A)p.r(C)p.r(U)p.r(G)p.r(G)p.r(A)p.r(G)p.r(G)p.r(U)p.r(U)p.r(A)p.r(G)p.r(U)p.r(A)p.r(G)p.r(U)p.r(C)p.r(C)p.r(T)p.r(T)}$$$RNA1{StrandType:ss}|RNA2{StrandType:as}$”, the target mRNA knockdown came out at 65%.

“RNA1{r(U)p.r(C)p.r(C)p.r(C)p.r(U)p.r(U)p.r(C)p.m(C)p.r(A)p.r(C)p.r(C)p.r(G)p.r(C)p.m(C)p.r(A)p.m(U)p.r(A)p.r(U)p.r(U)p.r(T)p.r(T)}|RNA2{r(A)p.r(A)p.m(U)p.r(A)p.m(U)p.r(G)p.r(G)p.r(C)p.r(G)p.r(G)p.m(U)p.r(G)p.r(G)p.r(A)p.r(A)p.r(G)p.r(G)p.r(G)p.r(A)p.r(T)p.r(T)}$$$RNA1{StrandType:ss}|RNA2{StrandType:as}$” registered a target mRNA knockdown of 47%.

In turn, “RNA1{r(C)p.r(U)p.r(U)p.r(C)p.r(U)p.r(U)p.r(C)p.r(G)p.r(U)p.r(C)p.r(G)p.r(A)p.r(G)p.r(A)p.r(C)p.r(C)p.r(A)p.r(U)p.r(G)p.d(T)p.d(T)}|RNA2{r(C)p.r(A)p.r(U)p.r(G)p.r(G)p.r(U)p.r(C)p.r(U)p.r(C)p.r(G)p.r(A)p.r(C)p.r(G)p.r(A)p.r(A)p.r(G)p.r(A)p.r(A)p.r(G)p.d(T)p.d(T)}$$$RNA1{StrandType:ss}|RNA2{StrandType:as}$” yielded a target mRNA knockdown of 45%.

Take “RNA1{m(U)p.r(A)p.r(C)p.r(C)p.r(G)p.r(A)p.r(G)p.r(A)p.r(A)p.m(U)p.r(G)p.r(A)p.r(G)p.r(C)p.r(C)p.m(U)p.r(G)p.r(A)p.r(U)p.r(T)p.r(T)}|RNA2{r(A)p.r(U)p.m(C)p.r(A)p.r(G)p.r(G)p.r(C)p.r(U)p.m(C)p.r(A)p.r(U)p.r(U)p.r(C)p.r(U)p.r(C)p.r(G)p.r(G)p.m(U)p.r(A)p.r(T)p.r(T)}$$$RNA1{StrandType:ss}|RNA2{StrandType:as}$”: the target mRNA knockdown amounted to 54%.

Turning to “RNA1{r(G)p.r(A)p.r(C)p.r(G)p.[hna](U)p.r(A)p.r(A)p.[hna](A)p.r(C)p.r(G)p.[hna](G)p.r(C)p.r(C)p.[hna](A)p.r(C)p.r(A)p.r(A)p.r(G)p.r(U)p.[hna](U)p.d(T)}|RNA2{r(A)p.m(C)p.r(U)p.r(U)p.r(G)p.r(U)p.r(G)p.r(G)p.r(C)p.r(C)p.r(G)p.r(U)p.r(U)p.r(U)p.r(A)p.r(C)p.r(G)p.r(U)p.r(C)p.r(G)p.r(C)}$$$RNA1{StrandType:ss}|RNA2{StrandType:as}$”, the target mRNA knockdown was 38%.

Regarding “RNA1{[fl2r](A)p.r(G)p.[fl2r](C)p.r(C)p.[fl2r](U)p.r(C)p.[fl2r](C)p.r(A)p.[fl2r](A)p.r(A)p.[fl2r](C)p.r(U)p.[fl2r](C)p.r(C)p.[fl2r](U)p.r(A)p.[fl2r](G)p.r(C)p.[fl2r](U)p.r(T)p.r(T)}|RNA2{r(A)p.r(G)p.r(C)p.r(U)p.r(A)p.r(G)p.r(G)p.r(A)p.r(G)p.r(U)p.r(U)p.r(U)p.r(G)p.r(G)p.r(A)p.r(G)p.r(G)p.r(C)p.r(U)p.r(T)p.r(T)}$$$RNA1{StrandType:ss}|RNA2{StrandType:as}$”, the target mRNA knockdown amounted to 16%.

“RNA1{[fl2r](U)p.r(U)p.[fl2r](C)p.r(U)p.[fl2r](A)p.r(A)p.[fl2r](C)p.r(C)p.[fl2r](G)p.r(G)p.[fl2r](G)p.r(C)p.[fl2r](A)p.r(G)p.[fl2r](C)p.r(U)p.[fl2r](U)p.r(C)p.[fl2r](U)p.r(T)p.r(T)}|RNA2{r(A)p.r(G)p.r(A)p.r(A)p.r(G)p.r(C)p.r(U)p.r(G)p.r(C)p.r(C)p.r(C)p.r(G)p.r(G)p.r(U)p.r(U)p.r(A)p.r(G)p.r(A)p.r(A)p.r(T)p.r(T)}$$$RNA1{StrandType:ss}|RNA2{StrandType:as}$” yielded a target mRNA knockdown of 61%.

“RNA1{m(C)p.r(C)p.m(G)p.r(C)p.m(C)p.r(C)p.m(G)p.r(G)p.m(C)p.r(G)p.m(G)p.r(C)p.m(G)p.r(C)p.m(C)p.r(U)p.m(U)p.r(U)p.m(A)p.r(T)p.r(T)}|RNA2{r(U)p.r(A)p.r(A)p.r(A)p.r(G)p.r(G)p.r(C)p.r(G)p.r(C)p.r(C)p.r(G)p.r(C)p.r(C)p.r(G)p.r(G)p.r(G)p.r(C)p.r(G)p.r(G)p.r(T)p.r(T)}$$$RNA1{StrandType:ss}|RNA2{StrandType:as}$” displayed a target mRNA knockdown of 49%.

For “RNA1{r(G)p.r(A)p.m(U)p.r(A)p.r(G)p.r(G)p.r(A)p.r(A)p.r(G)p.r(G)p.r(G)p.r(G)p.r(C)p.r(U)p.r(U)p.r(C)p.r(A)p.r(G)p.r(C)p.r(T)p.r(T)}|RNA2{r(G)p.r(C)p.r(U)p.r(G)p.r(A)p.r(A)p.r(G)p.r(C)p.r(C)p.r(C)p.r(C)p.r(U)p.r(U)p.r(C)p.r(C)p.m(U)p.m(A)p.r(U)p.r(C)p.r(T)p.r(T)}$$$RNA1{StrandType:ss}|RNA2{StrandType:as}$”, the target mRNA knockdown worked out at 41%.
